# Entries after “also recorded” stand apart in the source; their conditions may differ. Like-named read-outs stand apart in the source and are kept apart here.
# Tests used:
# [1] = cited from earlier work
# [2] = crystalline form, cited from earlier work
# [3] = cited from earlier work; remark: listed apart in the source
# [4] = DMSO/PBS (pH 7.2) solution; cited from earlier work
# [5] = tested on: laser-induced choroidal neovascularization (CNV); assay: Fundus fluorescein angiography (FFA) in laser-induced CNV mouse model; assay type: in vivo, C57 BL/6 mice; settings: intravitreal injection 2 μl per eyeball, 14 days after laser injury, vs PBS
# [6] = tested on: laser-induced choroidal neovascularization (CNV); assay: Optical coherence tomography (OCT) in laser-induced CNV mouse model; assay type: in vivo, C57 BL/6 mice; settings: intravitreal injection, day 14 after laser injury, vs PBS
# function of the retina = tested on: function of the retina; design: species or system C57 BL/6 mice; settings: mouse, in vivo
# Protocol: 5) After C57 BL/6 mice (Orient Bio, Korea) were acclimatized to be adapted to the environment for 1 week, 7-week old mice were treated with the image-guided laser (Phoenix, USA) especially optic nerve area at 3, 6, 9, and 12 o'clock positions. The laser was irradiated at 532 nm, 100 ms/70 ms, 200 mW, and a spot size was 50 μm.
# The mice were dark adapted for 24 hours before test and all tests were performed in a darkroom. The eyes of mice were dilated and general anesthetized by intraperitoneal injection with a mixture of ketamine (30 mg/kg) and xylazine hydrochloride (2.5 mg/kg) in order to detect the function of the retina. Electrodes were placed in skin, tail and cornea to run electroretinography. […] The amplitude from the trough of A-wave to the peak of B-wave was measured and evaluated as an index of the function of the retina. […]
# FIG. 9A-FIG. 9F are the test results that measured the response degree of retina to the white light after dark adaptation of group with intravitreal injection at day 15 after laser injury.
# The dose of each individual was calculated based on the body weight measured immediately prior to administration and then orally administered using a disposable syringe equipped with sonde. […]
# FIG. 14A-FIG. 14E are the test results that measured the response degree of retina to the white light after dark adaptation of group with oral administration at day 14 after laser injury.
# [7] = tested on: vascular endothelial growth factor (VEGF); assay: Western blot analysis of VEGF expression in the choroid and the retina; assay type: in vivo, C57 BL/6 mice; settings: intravitreal administration, day 15 after laser injury
# [8] = tested on: wet (age-related) macular degeneration; settings: in vivo; cited from earlier work
molecule,measurement,setting,value
"C[C@H](CCC(=O)O)[C@H]1CC[C@H]2[C@@H]3[C@@H](O)C[C@@H]4C[C@H](O)CC[C@]4(C)[C@H]3CC[C@]12C [UDCA, ursodeoxycholic acid]",solubility in water,[1],20 µg/mL
same,solubility in water,[1]; protonated form,53 µM
same,"acid dissociation constant, pKa",[2],about 5.0
same,"acid dissociation constant, pKa",[2]; listed as ursodeoxycholic acid,5.1
same,absorbed at the ileum of the colon by the active transport mechanism,"[3]; oral tablet or capsule, crystalline form",up to 20 % of intakes
same,absorbed along the jejunum and ileum by nonionic passive diffusion,[3]; oral tablet or capsule,30-60%
same,absorbed to the liver through the small intestine,[3]; taken orally,≥ 95%
"C[C@H](CCC(=O)NCCS(=O)(=O)O)[C@H]1CC[C@H]2[C@@H]3[C@@H](O)C[C@@H]4C[C@H](O)CC[C@]4(C)[C@H]3CC[C@]12C [tUDCA, tauroursodeoxycholic acid]",solubility in water,[1],200 µg/mL
same,solubility,"[1]; first dissolved in DMSO, then mixed with PBS (pH 7.2) 1:4",up to 200 mg/l
same,pH (strong acidity),[2],≤ 1
same,time the stability of the solution can be maintained,[4],about 1 day
"Eylea®: conventional VEGF antibody drug, positive control, intravitreal injection","choroidal neovascularization (FFA, corrected total fluorescence)",[5],statistically significantly inhibited
same,size of CNV lesions (OCT),[6],statistically significantly inhibited
same,ERG response,function of the retina,increased
same,expression of VEGF in the choroid and the retina,[7],decreased; also recorded: less compared to that of YSB201
"Lucentis®: antibody drug inhibiting the activity of VEGF, intravitreal injection once every four weeks (antibody, chains of the INN, looked up, V domains shown, Fab) VH: EVQLVESGGGLVQPGGSLRLSCAASGYDFTHYGMNWVRQAPGKGLEWVGWINTYTGEPTYAADFKRRFTFSLDTSKSTAYLQMNSLRAEDTAVYYCAKYPYYYGTSHWYFDVWGQGTLVTVSS VL: DIQLTQSPSSLSASVGDRVTITCSASQDISNYLNWYQQKPGKAPKVLIYFTSSLHSGVPSRFSGSGSGTDFTLTISSLQPEDFATYYCQQYSTVPWTFGQGTKVEIK",vision improvement rate,[8],40%
same,vision maintenance effect,[8],90%

# From patent publication US20210252022A1, “COMPOSITION FOR THE PREVENTION OR THE TREATMENT OF VISUAL IMPAIRMENTS COMPRISING URSODEOXYCHOLIC ACID” (AMICOGEN PHARMA INC., priority 2017, published 2021)
